Columns and labels:
[1] = molecular target: p53-382 acetylated peptide (human) (UniProt P04637)
S. cerevisiae = assay: Yeast replicative lifespan; assay type: cell-based
Protocol: Average lifespan for wild type, 22.9 generations, quercetin, 23.4; piceatannol. […]
All yeast strains were grown at 30° C. in complete yeast extract/bactopeptone, 2.0% (w/v) glucose (YPD) medium except where stated otherwise. Calorie restriction was induced in 0.5% glucose. Synthetic complete (SC) medium consisted of 1.67% yeast nitrogen base, 2% glucose, 40 mg/litre each of auxotrophic markers. SIR2 was integrated in extra copy and disrupted as described^5. Other strains are described elsewhere^26. For cellular deacetylation assays, HeLa S3 cells were used. U20S osteosarcoma and human embryonic kidney (HEK 293) cells were cultured adherently in Dulbecco's Modified Eagle's Medium (DMEM) containing 10% fetal calf serum (FCS) with 1.0% glutamine and 1.0% penecillin/streptomycin. HEK 293 overexpressing dominant negative SIRT1 H363Y was a gift of R. Frye (U. Pittsburgh).
Lifespan measurements were performed using PSY316AT MATα as previously described^35. All compounds for lifespan analyses were dissolved in 95% ethanol and plates were dried and used within 24 hours. Prior to lifespan analysis, cells were pre-incubated on their respective media for at least 15 hours. Following transfer to a new plate, cells were equilibrated on the medium for a minimum of 4 hours prior to micro-manipulating them. At least 30 cells were examined per experiment and each experiment was performed at least twice. Statistical significance of lifespan differences was determined using the Wilcoxon rank sum test. Differences are stated to be significant when the confidence is higher than 95%.

HeLa S3 cells = assay: Cellular deacetylase assay (FdL, TSA-insensitive signal); assay type: cell-based, human; conditions: 500 μM compound, 200 μM FdL, 1 μM TSA, 1 hour
Protocol: FdL (200 μM) is added to growth media and cells incubated for 1-3 hours to allow FdL to enter the cells and the lysine-deacetylated product (deAc-FdL) to accumulate intracellularly. Cells are lysed with detergent in the presence of 1 μM TSA, 1 mM nicotinamide. Addition of the non-cell-permeable Developer (BIOMOL) releases a fluorophor, specifically from deAc-FdL. b, SIRT1 activating polyphenols can stimulate TSA-insensitive, FdL deacetylation by HeLa S3 cells. Cells were grown adherently in DMEM/10% FCS and treated for 1 hour with 200 μM FdL, 1 μM TSA and either vehicle (0.5% final DMSO, Control) or 500 μM of the indicated compound. Intracellular accumulation of deAc-FdL was then determined as described briefly in a. […] Lysates were prepared and analyzed as above. […]
Themed compound libraries (BIOMOL) were used for primary and secondary screening. […] In vitro fluorescence assay results were read in white ½-volume 96-well microplates (Coming Costar 3693) with a CytoFluor™. II fluorescence plate reader (PerSeptive Biosystems, Ex. 360 nm, Em. 460 nm, gain=85). HeLa cells were grown and the cellular deacetylation assays were performed and read, as above, but in full-volume 96-well microplates (Coming Costar 3595). […]

recombinant human SIRT1 = molecular target: T1, recombinant human SIRT1 (Homo sapiens, UniProt Q96EB6); assay: SIRT1 fluorescent deacetylation assay (p53-382 acetylated peptide); assay type: biochemical; conditions: 25 μM NAD+, 25 μM p53-382 acetylated peptide, compounds at 100 μM
T1 sequence (Q96EB6 1-747): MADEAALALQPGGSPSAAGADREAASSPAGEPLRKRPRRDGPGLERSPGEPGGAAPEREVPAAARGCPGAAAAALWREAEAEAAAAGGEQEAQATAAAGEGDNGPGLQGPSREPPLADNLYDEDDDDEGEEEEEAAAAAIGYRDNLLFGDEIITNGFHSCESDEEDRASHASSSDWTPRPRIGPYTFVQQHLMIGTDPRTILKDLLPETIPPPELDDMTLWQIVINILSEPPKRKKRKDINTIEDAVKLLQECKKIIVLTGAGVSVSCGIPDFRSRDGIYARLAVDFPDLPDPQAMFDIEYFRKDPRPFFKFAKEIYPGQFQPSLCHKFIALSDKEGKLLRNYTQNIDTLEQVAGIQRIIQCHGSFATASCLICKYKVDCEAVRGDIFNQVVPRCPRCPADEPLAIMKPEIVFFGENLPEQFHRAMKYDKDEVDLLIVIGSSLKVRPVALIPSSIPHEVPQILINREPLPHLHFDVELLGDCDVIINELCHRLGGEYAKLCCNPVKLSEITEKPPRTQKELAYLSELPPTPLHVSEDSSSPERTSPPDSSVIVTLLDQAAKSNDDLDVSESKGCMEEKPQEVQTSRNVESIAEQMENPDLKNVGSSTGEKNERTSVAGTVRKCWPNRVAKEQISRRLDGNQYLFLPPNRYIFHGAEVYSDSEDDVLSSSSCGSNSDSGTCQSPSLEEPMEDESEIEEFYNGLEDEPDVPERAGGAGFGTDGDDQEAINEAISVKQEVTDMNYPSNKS
Text: Lines represent non-linear least-squares fits to the Michaelis-Menten equation. […] Lines represent non-linear least-squares fits to the Michaelis-Menten equation. […] Error bars are standard errors of the mean.
To identify compounds that modulate SIRT1 activity, a number of small molecule libraries were screened using a fluorescent deacetylation assay in 96-well plates^26. The substrate used in the assay was a fluorogenic peptide based on the sequence encompassing the p53-K382 acetylation site, a known target of SIRT1 in vivo^20,21,27. […] The small molecule libraries included analogues of nicotinamide, ε-acetyl lysine, NAD^+, nucleotides, nucleotide analogues and purinergic ligands.
His6-tagged recombinant SIRT1 and GST-tagged recombinant Sir2 were prepared as previously described^26. From 0.1 to 1 μg of SIRT1 and 1.5 μg of Sir2 were used per deacetylation assay (in 50 μl total reaction) as previously described^26.
Themed compound libraries (BIOMOL) were used for primary and secondary screening. Most polyphenol compounds were dissolved at 10 mM in dimethylsulfoxide (DMSO) on the day of the assay. For water soluble compounds and negative controls, 1% v/v DMSO was added to the assay. […] Unless otherwise indicated all initial rate measurements were means of three or more replicates, obtained with single incubation times, at which point 5% or less of the substrate initially present had been deacetylated. Calculation of net fluorescence increases included subtraction of a blank value, which in the case of Sir2 was obtained by omitting the enzyme from the reaction and in the case of SIRT1 by adding an inhibitor (200 μM suramin or 1 mM nicotinamide) to the reaction prior to the acetylated substrate. […] All error bars represent the standard error of the mean.

C. elegans = C. elegans lifespan; assay type: in vivo; conditions: N2 worms, E. coli as food
Protocol: Thus, the presence of resveratrol in the growth media of C. elegans extends their lifespan.
Bristol N2 (Caenorhabditis Genetics Center) was used as the wild-type strain. The sir-2.1 mutant strain was generated by backcrossing VC199 (sir-2.1(ok434)) to N2 four times. Cultures were grown on standard NGM media and maintained on E. coli strain OP50. For the lifespan assays, synchronized animals were transferred to treatment plates as young adults (2 d after hatching, day 0 of assay), and were transferred to fresh treatment plates every 2 days for the first 6 to 8 days of the assay. […] For some lifespan trials, heat-killed OP50 were used as a food source. OP50 cultures were heated to 65° C. for 30 minutes, then pelleted and resuspended in 1/10 volume in S Basal supplemented with 10 mM MgSO4. In all assays, worms were monitored daily for mortality by gently probing with a platinum pick. Assays were performed at 24° C. To assay worm feeding rates, worms at the indicated stages were placed on treatment plates (no FUdR) for 4-5 hours, then videoed for 1 minute using a Pixelink PL-662 camera. The frame rate was slowed and the pumping rate of the pharynx was counted. To assay fecundity, gravid hermaphrodites (5 per plate, raised from synchronized L1s on normal or treatment plates) were allowed to lay eggs on their respective media for 5 hours, and the total number of eggs was counted.

[2] = molecular target: T2, SIRT1 deacetylase (BIOMOL) (Homo sapiens, UniProt Q96EB6); assay: High-throughput SIRT1 screening protocol (ICCB library); assay type: biochemical; conditions: positive controls; 200 μM NAD+, 5 μM Fluor de Lys-SIRT1; resveratrol 50 μM
T2 construct: purchased BIOMOL
T2 sequence (Q96EB6 1-747): T1 sequence (Q96EB6 1-747)
Protocol: The reaction mixture contains (final): 0.5 units/reaction SIRT1 deacetylase (BIOMOL); 200 μM NAD^+; 5 μM Fluor de Lys-SIRT1 substrate (BIOMOL); buffer (25 mM Tris/Cl, pH 8.0, 137 mM NaCl, 2.7 mM KCl, 1 mM MgCl2, and 1 mg/ml BSA). In addition, a reaction mixture containing no enzyme was made so that each well receiving compound has a corresponding “no enzyme control” well. Reactions were performed in black 384 well plates (NUNC) in a final volume of 25 μl/well.
The reactions were started by combining enzyme and substrate in a reaction mixture immediately prior to aliquoting in plates (or substrate only for “no enzyme control” plates). Mixture were aliquoted to plates using Biotek μfill (Biotek Instruments). Control mixtures were manually added to designated wells. A library compound was added at a desired concentration by pin transfer to both “with enzyme” and “no enzyme” plates. Compounds were added in at least triplicate (with enzyme reaction in duplicate and no enzyme controls) at a final concentration of roughly 50 μM. The plates were incubated at 37° C for 30-60 minutes. Then 25 μl of 1× Developer II (BIOMOL) plus 2 mM nicotinamide were added to all wells to stop the reactions. The reactions were left for at least 30 minutes at 37° C. for the signal to develop. The plates were read in a microplate-reading fluorometer capable of excitation at a wavelength in the range of 350-380 nm and detection of emitted light in the range of 440-460 nm. A read time of 0.1 sec per well was used.

[3] = test system: thoracic spinal cord of EAE SJL/J mice; assay: EAE spinal cord white matter damage; assay type: in vivo, mouse; conditions: FK506 5 mg/kg, significant
Text: At day 40 post-immunization, mice from each group are sacrificed with an overdose of ketamine/xylazine. Spinal cords are dissected, fixed in 10% buffered formalin, and embedded in paraffin. Five micron thick sections are stained with Hematoxylin and Eosin (H&E) and Luxol Fast Blue (LFB) to assess myelin loss. Bielshowesky's silver impregnation is used to evaluate axonal integrity. To asses the amount of axonal loss, paraffin sections are exposed to monoclonal antibodies against mouse non-phosphorylated neurofilament H (Clone SMI-32, Stemberger Monoclonals, Baltimore, USA) and monoclonal antibodies against APP (Clone 22C11, Chemicon). SMI-32 is detected with a Cy3-labeled antibody and visualized by fluorescence microscopy. Anti-APP antibodies are detected by incubation with ColonoPAP, and APP-positive axons are visualized with 3,3′-diaminobenzidine (DAB).
The percentage of the spinal cord showing damage was determined in the cervical, thoracic and lumbar cord. At each level, regions in the 1) dorsal columns and 2) the lateral and ventral white matter tracts containing damaged fibers was circumscribed on photomontages (final magnification ×100) of the entire spinal cord. Damaged areas in each of the two regions were measured using a SummaSketch III (Summagraphics, Seymour, Conn.) digitizing tablet and BIOQUANT Classic 95 software (R&M Biometrics, Nashville, Tenn.). Measurements were also be made of the total area (damaged and nondamaged) of the 1) dorsal columns and 2) the lateral and ventral columns. For each section (one section per animal), the cumulative percent lesion areas were calculated for each region (dorsal column, lateral and ventral columns).

[4] = test system: Experimental autoimmune encephalomyelitis (EAE) in SJL/J mice; conditions: FK506 5 mg/kg/day

**Q.** For His6-tagged recombinant SIRT1 (enzyme), which Km for the acetylated peptide (initial deacetylation rate, fluorescence) [1] is on record?
**A.** Its Km for the acetylated peptide (initial deacetylation rate, fluorescence) is 64 µM.

**Q.** What does the source list for `O=C(/C=C/c1ccc(O)c(O)c1)c1ccc(O)cc1O` [butein, 3,4,2′,4′-Tetrahydroxychalcone]?
**A.** increase of average lifespan (S. cerevisiae; 10 μM): 31%; maximum lifespan (in words) (S. cerevisiae; 10 μM): significantly increased maximum lifespan; Average lifespan (S. cerevisiae; 10 μM compound, 2% glucose medium, wild type untreated 22.9): 35.5 generations; TSA-insensitive cellular deacetylation signal (HeLa S3 cells): no effect on the cellular signal

**Q.** How did the “SIRT1 stimulating activity (in words)” value (recombinant human SIRT1) turn out when `COc1ccc(/C=C/c2cc(O)cc(O)c2)cc1` [BML-233, 3,5-Dihydroxy-4′-methoxy-trans-stilbene] was run?
**A.** The value was “strong activator of sirtuins”.

**Q.** And the “% change in C. elegans lifespan relative to untreated organisms” value (C. elegans; (10))?
**A.** Its value is 70%.

**Q.** And the “% change in C. elegans lifespan relative to untreated organisms” value (C. elegans; (500))?
**A.** The value was 50%.

**Q.** What about the “activated SIRT1” value [2] of the same molecule?
**A.** Its value is 2.1 fold.

**Q.** With `C=CC[C@@H]1/C=C(\C)C[C@H](C)C[C@H](OC)[C@H]2O[C@@](O)(C(=O)C(=O)N3CCCC[C@H]3C(=O)O[C@H](/C(C)=C/[C@@H]3CC[C@@H](O)[C@H](OC)C3)[C@H](C)[C@@H](O)CC1=O)[C@H](C)C[C@@H]2OC` [FK506] as the molecule, how does the “reduction of extent of damage in dorsal, lateral and ventral white matter” value [3] read?
**A.** Its value is “over 90%”.

**Q.** And the “Mean EAE Score - Last 10 Days” value ([4]; vehicle 23.00)?
**A.** The value was 7.75.

**Q.** What about the “Mean total EAE score” value ([4]; vehicle 72.38) of the same molecule?
**A.** The value was 25.38.
